Data on 59 compounds can be found in patent US11084796B2, “Heterocyclic derivatives for the treatment of RSV” (GEORGIA STATE UNIVERSITY RESEARCH FOUNDATION, INC., priority 2016, dated 2021).

The structures appear in SMILES notation. A value given as a limit tells only on which side of the number the result lay.

This assay relates to RSV. Put plainly: Potency range (EC50 values) of C series compounds against RSV. Type of assay: cell-based. The note with it: human respiratory syncytial virus. As for the experimental part:
Two-fold serial dilutions of hit candidates were prepared in 384-well plates in three replicates each using the Nimbus liquid handler. BEAS-2B cells (8×10^3/well) were then plated as before, serial dilutions transferred using the pin-tool, and cells infected with recombinant virus strains expressing distinct luciferase reporter proteins or left uninfected for cell viability assessment. Reporter signals were recorded as outlined above. To determine cell viability, PrestoBlue substrate (life technologies) was added after 40-hour incubation of cells at 37° C. (5 μl/well) and top-read fluorescence (excitation 560 nm; emission 590 nm; instrument gain 85) recorded after 45 minutes of incubation at 37° C. using the H1 synergy plate reader. Four-parameter variable slope regression modeling was applied to determine 50% active (EC50) and toxic (CC50) concentrations.
The term EC50 denotes the concentration at which the effect is half-maximal. In the case of `O=C(CN1C(=O)C(C(=O)N2CCCCC2)Sc2cccc(Cl)c21)NC1CCCCC1` (centres unmarked) [AVG-064], the EC50 lay within 10 to 20 µM.

For the compound `NC(=O)CN1C(=O)C(C(=O)N2CCCCC2)Sc2ccccc21` (centres unmarked) [AVG-113], the EC50 is > 20 µM.

Take `CC(C)(NC(=O)CN1C(=O)C(C(=O)N2CCCCC2)Sc2ccccc21)c1ccccc1` (centres unmarked) [AVG-139]: the concentration for a half-maximal effect (EC50) fell in the range of 1 to 10 µM.

On to `CCCCNC(=O)C1Sc2ccccc2N(CC(=O)NC2CCCCC2)C1=O` (centres unmarked) [AVG-086], for which the EC50 lay in the range of 10 to 20 µM.

In the case of `CC(C)(NC(=O)C1Sc2ccccc2N(CC(=O)NC2CCCCC2)C1=O)c1ccccc1` (centres unmarked) [AVG-144], the EC50 was 1 to 10 µM.

For `O=C(CN1C(=O)C(C(=O)N2CCNCC2)Sc2ccccc21)NC1CCCCC1` (centres unmarked) [AVG-055], the EC50 was > 20 µM.

In the case of `O=C(CN1C(=O)C(C(=O)N2CCCCC2)Sc2cc(C(F)(F)F)ccc21)NC1CCCCC1` (centres unmarked) [AVG-156], the EC50 was 1 to 10 µM.

As to `CC(C)NC(=O)CN1C(=O)C(C(=O)N2CCCCC2)Sc2ccccc21` (centres unmarked) [AVG-048], the EC50 is > 20 µM.

With `O=C(CN1C(=O)C(C(=O)N2CCCCC2)Sc2cc(Br)ccc21)NC1CCCCC1` (centres unmarked) [AVG-149], the EC50 fell in the range of 1 to 10 µM.

In the case of `O=C(CN1C(=O)C(C(=O)N2CCCCC2)Sc2ccccc21)Nc1cccnc1` (centres unmarked) [AVG-223], the EC50 was in the range of 10 to 20 µM.

Take `CC(C)c1ccc2c(c1)SC(C(=O)N1CCCCC1)C(=O)N2CC(=O)NC1CCCCC1` (centres unmarked) [AVG-153]: the EC50 lay in the range of 1 to 10 µM.

Consider `O=C(CN1C(=O)C(C(=O)N2CCCCC2)Sc2cc(Cl)ccc21)NCC1CCCCC1` (centres unmarked) [AVG-217], for which the EC50 was in the range of 1 to 10 µM.

For `CC(NC(=O)CN1C(=O)C(C(=O)N2CCCCC2)Sc2ccccc21)c1ccccc1` (centres unmarked) [AVG-138], the EC50 was in the range of 1 to 10 µM.

`O=C(CN1C(=O)C(C(=O)N2CCCCC2)Sc2ccccc21)Nc1ccncc1` (centres unmarked) [AVG-224]: the EC50 lay within 10 to 20 µM.

For the compound `CC(C)(C)NC(=O)C1Sc2ccccc2N(CC(=O)NC2CCCCC2)C1=O` (centres unmarked) [AVG-141], the EC50 was 1 to 10 µM.

Turning to `O=C(CN1C(=O)C(C(=O)NC2CCCCC2)Sc2cc(Cl)ccc21)NC1CCCCC1` (centres unmarked) [AVG-218], the EC50 fell in the range of 1 to 10 µM.

Turning to `O=C(CN1C(=O)C(C(=O)N2CCCCC2)Sc2cc(-c3ccccc3)ccc21)NC1CCCCC1` (centres unmarked) [AVG-154], the EC50 was > 20 µM.

As to `CN(C)C(=O)C1Sc2ccccc2N(CC(=O)NC2CCCCC2)C1=O` (centres unmarked) [AVG-057], the EC50 was 1 to 10 µM.

For the compound `CC(C)(C)NC(=O)CN1C(=O)C(C(=O)N2CCCCC2)Sc2ccccc21` (centres unmarked) [AVG-140], the EC50 lay within 1 to 10 µM.

Regarding `CN1CCC(NC(=O)CN2C(=O)C(C(=O)N3CCCCC3)Sc3ccccc32)CC1` (centres unmarked) [AVG-047], the EC50 was > 20 µM.

With `COc1cccc2c1N(CC(=O)NC1CCCCC1)C(=O)C(C(=O)N1CCCCC1)S2` (centres unmarked) [AVG-148], the EC50 was in the range of 10 to 20 µM.

In the case of `O=C(CN1C(=O)C(C(=O)NC2CCCCC2)Sc2ccccc21)NC1CCCCC1` (centres unmarked) [AVG-058], the half-maximal effective concentration (EC50) is 1 to 10 µM.

As to `Cc1ccc2c(c1)SC(C(=O)N1CCCCC1)C(=O)N2CC(=O)NC1CCCCC1` (centres unmarked) [AVG-151], the EC50 is 10 to 20 µM.

For the compound `COc1cccc2c1SC(C(=O)N1CCCCC1)C(=O)N2CC(=O)NC1CCCCC1` (centres unmarked) [AVG-145], the EC50 was in the range of 1 to 10 µM.

On to `CN1CCN(C(=O)C2Sc3ccccc3N(CC(=O)NC3CCCCC3)C2=O)CC1` (centres unmarked) [AVG-056], for which the EC50 was in the range of 10 to 20 µM.

On to `COc1ccc2c(c1)N(CC(=O)NC1CCCCC1)C(=O)C(C(=O)N1CCCCC1)S2` (centres unmarked) [AVG-147], for which the EC50 lay within 10 to 20 µM.

For the compound `C=C(C)c1ccc2c(c1)SC(C(=O)N1CCCCC1)C(=O)N2CC(=O)NC1CCCCC1` (centres unmarked) [AVG-215], the EC50 lay within 1 to 10 µM.

Turning to `O=C(CN1C(=O)C(C(=O)N2CCCCC2)Sc2ccccc21)NC1CC1` (centres unmarked) [AVG-114], the EC50 is > 20 µM.

In the case of `O=C(C1Sc2ccccc2N(Cc2nc3ccccc3o2)C1=O)N1CCCCC1` (centres unmarked) [AVG-111], the EC50 is > 20 µM.

Consider `CN(C(=O)CN1C(=O)C(C(=O)N2CCCCC2)Sc2ccccc21)C1CCCCC1` (centres unmarked) [AVG-059], for which the EC50 was > 20 µM.

Consider `O=C(CN1C(=O)C(C(=O)N2CCCCC2)Sc2ccc(Cl)cc21)NC1CCCCC1` (centres unmarked) [AVG-063], for which the EC50 was in the range of 1 to 10 µM.

For the compound `O=C(CN1C(=O)C(C(=O)NCc2ccccc2)Sc2ccccc21)NC1CCCCC1` (centres unmarked) [AVG-142], the EC50 was 10 to 20 µM.

`COc1ccc2c(c1)SC(C(=O)N1CCCCC1)C(=O)N2CC(=O)NC1CCCCC1` (centres unmarked) [AVG-146]: the EC50 is 1 to 10 µM.

`O=C(CN1C(=O)C(C(=O)N2CCCCC2)Sc2c(Cl)cccc21)NC1CCCCC1` (centres unmarked) [AVG-061]: the EC50 fell in the range of 1 to 10 µM.

For `COc1ccccc1NC(=O)CN1C(=O)C(C(=O)N2CCCCC2)Sc2ccccc21` (centres unmarked) [AVG-221], the EC50 fell in the range of 1 to 10 µM.

As for `O=C(CN1C(=O)C(C(=O)N2CCCCC2)Sc2ccccc21)Nc1ccccc1Cl` (centres unmarked) [AVG-220], the EC50 was 1 to 10 µM.

For `CN1CCC(NC(=O)C2Sc3ccccc3N(CC(=O)NC3CCCCC3)C2=O)CC1` (centres unmarked) [AVG-085], the EC50 was > 20 µM.

Consider `Cc1ccccc1NC(=O)CN1C(=O)C(C(=O)N2CCCCC2)Sc2ccccc21` (centres unmarked) [AVG-052], for which the EC50 fell in the range of 1 to 10 µM.

For the compound `O=C(CN1C(=O)C(C(=O)NC2CCOCC2)Sc2ccccc21)NC1CCCCC1` (centres unmarked) [AVG-083], the EC50 is > 20 µM.

Take `O=C(CN1C(=O)C(C(=O)NC2CCNCC2)Sc2ccccc21)NC1CCCCC1` (centres unmarked) [AVG-084]: the EC50 is > 20 µM.

`Cc1ccccc1NC(=O)CN1C(=O)C(C(=O)N2CCCCC2)Sc2cc(Cl)ccc21` (centres unmarked) [AVG-219]: the EC50 was 0.1 to 1 µM.

For `CC(C)NC(=O)C1Sc2ccccc2N(CC(=O)NC2CCCCC2)C1=O` (centres unmarked) [AVG-087], the EC50 is 10 to 20 µM.

Take `CC1CCC(NC(=O)CN2C(=O)C(C(=O)N3CCCCC3)Sc3ccccc32)CC1` (centres unmarked) [AVG-049]: the EC50 was 1 to 10 µM.

Turning to `O=C(CN1C(=O)C(C(=O)N2CCCCC2)Sc2ccccc21)NCC1CCCCC1` (centres unmarked) [AVG-216], the EC50 was in the range of 1 to 10 µM.

As to `O=C(CN1C(=O)C(C(=O)N2CCCCC2)Sc2ccccc21)NC1CCNCC1` (centres unmarked) [AVG-046], the EC50 is > 20 µM.

`O=C(CN1C(=O)C(C(=O)N2CCCCC2)Sc2ccccc21)NC1CCCC1` (centres unmarked) [AVG-051]: the EC50 lay within 1 to 10 µM.

Regarding `O=C(CN1C(=O)C(C(=O)N2CCCCC2)Sc2cc(Cl)ccc21)NC1CCCCC1` (centres unmarked) [AVG-062], the EC50 lay within 0.1 to 1 µM.

For `Cc1cccc(NC(=O)CN2C(=O)C(C(=O)N3CCCCC3)Sc3ccccc32)c1` (centres unmarked) [AVG-053], the EC50 is > 20 µM.

Take `CCc1ccc2c(c1)SC(C(=O)N1CCCCC1)C(=O)N2CC(=O)NC1CCCCC1` (centres unmarked) [AVG-152]: the EC50 lay within 1 to 10 µM.

With `O=C(CN1C(=O)C(C(=O)N2CCCCC2)Sc2ccccc21)N1CCCCC1` (centres unmarked) [AVG-060], the EC50 is > 20 µM.

For `CC(NC(=O)C1Sc2ccccc2N(CC(=O)NC2CCCCC2)C1=O)c1ccccc1` (centres unmarked) [AVG-143], the EC50 was > 20 µM.

Take `O=C(CN1C(=O)C(C(=O)N2CCCCC2)Sc2ccccc21)NC1CCOCC1` (centres unmarked) [AVG-045]: the concentration giving a half-maximal response (EC50) is > 20 µM.

As for `O=C(CN1C(=O)C(C(=O)N2CCCCC2)Sc2cnccc21)NC1CCCCC1` (centres unmarked) [AVG-155], the EC50 was 1 to 10 µM.

In the case of `O=C(CN1C(=O)C(C(=O)N2CCCCC2)Sc2ccccc21)NCc1ccccc1` (centres unmarked) [AVG-137], the EC50 was 1 to 10 µM.

In the case of `O=C(CN1C(=O)C(C(=O)N2CCCCC2)Sc2ccccc21)NC1CCCCC1` (centres unmarked) [AVG-044, N-cyclohexyl-2-(3-oxo-2-(piperidine-1-carbonyl)-2H-benzo[b][1,4]thiazin-4(3H)-yl) acetamide], the EC50 was in the range of 1 to 10 µM.

For `O=C(C1Sc2ccccc2N(Cc2nc3ccccc3[nH]2)C1=O)N1CCCCC1` (centres unmarked) [AVG-112], the EC50 was in the range of 10 to 20 µM.

As to `O=C(CN1C(=O)C(C(=O)N2CCCCC2)Sc2cc(F)ccc21)NC1CCCCC1` (centres unmarked) [AVG-150], the concentration giving a half-maximal response (EC50) was 1 to 10 µM.

Take `O=C(CN1C(=O)C(C(=O)N2CCOCC2)Sc2ccccc21)NC1CCCCC1` (centres unmarked) [AVG-054, N-cyclohexyl-2-(2-(morpholine-4-carbonyl)-3-oxo-2H-benzo[b][1,4]thiazin-4(3H)-yl) acetamide]: the EC50 lay in the range of 1 to 10 µM.

Turning to `CC1(C)CCC(NC(=O)CN2C(=O)C(C(=O)N3CCCCC3)Sc3ccccc32)CC1` (centres unmarked) [AVG-050], the concentration giving a half-maximal response (EC50) lay in the range of 1 to 10 µM.
